Experimental findings from paper PMC7071059, “Targeting Receptor Tyrosine Kinase VEGFR-2 in Hepatocellular Cancer: Rational Design, Synthesis and Biological Evaluation of 1,2-Disubstituted Benzimidazoles” (Molecules, 2020) are described below.

The test system of one assay is SNB-75. Nature of the assay: NCI 60 one dose (10 μM) anticancer assay. It is filed as cell-based. To be noted: Homo sapiens, 10 µM one dose, CNS Cancer, read-out: Growth Inhibition % SNB-75. In short, it runs like this:
(§1)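 Compounds selected by the NCI were screened in vitro at a single 10 μM concentration. The full 60-cell-line panel spans 9 cancer types. Values are percent growth inhibition of each cell line.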

In the next assay the test system is HS 578T. Nature of the assay: NCI 60 one dose (10 μM) anticancer assay. The assay is classed as cell-based. To be noted: Homo sapiens, 10 µM one dose, Breast Cancer, read-out: Growth Inhibition % HS 578T. In a few lines:
as §1

The next assay has as its system SK-MEL-5. Nature of the assay: NCI 60 one dose (10 μM) anticancer assay. It is filed as cell-based. The conditions noted are these: Homo sapiens, 10 µM one dose, Melanoma, read-out: Growth Inhibition % SK-MEL-5. In a few lines:
as §1

A further assay has as its system BT-549. Nature of the assay: NCI 60 one dose (10 μM) anticancer assay. The assay is classed as cell-based. The conditions noted are these: Homo sapiens, 10 µM one dose, Breast Cancer, read-out: Growth Inhibition % BT-549. In a few lines:
as §1

A further assay deals with UO-31. Nature of the assay: NCI 60 one dose (10 μM) anticancer assay. The assay is classed as cell-based. To be noted: Homo sapiens, 10 µM one dose, Renal Cancer, read-out: Growth Inhibition % UO-31. In short, it runs like this:
as §1

The subject of a further assay is U251. Nature of the assay: NCI 60 one dose (10 μM) anticancer assay. It is filed as cell-based. To be noted: Homo sapiens, U-251; 10 µM one dose; CNS Cancer; read-out: Growth Inhibition % U251. In short, it runs like this: as §1
For another assay, the system named is A549/ATTC. Nature of the assay: NCI 60 one dose (10 μM) anticancer assay. The conditions noted are these: Homo sapiens, 10 µM one dose, Non-small cell lung Cancer, read-out: Growth Inhibition % A549/ATTC. The assay is classed as cell-based. In a few lines:
as §1

The test system of the next assay is NCI-H322M. Nature of the assay: NCI 60 one dose (10 μM) anticancer assay. It is filed as cell-based. To be noted: Homo sapiens, 10 µM one dose, Non-small cell lung Cancer, read-out: Growth Inhibition % NCI-H322M. In a few lines: as §1
The subject of the next assay is EKVX. Nature of the assay: NCI 60 one dose (10 μM) anticancer assay. The assay is classed as cell-based. To be noted: Homo sapiens, 10 µM one dose, Non-small cell lung Cancer, read-out: Growth Inhibition % EKVX. In a few lines: as §1
Another assay relates to CCRF-CEM. Nature of the assay: NCI 60 one dose (10 μM) anticancer assay. It is filed as cell-based. To be noted: Homo sapiens, 10 µM one dose, Leukemia, read-out: Growth Inhibition % CCRF-CEM. In a few lines: as §1
A further assay deals with SW-620. Nature of the assay: NCI 60 one dose (10 μM) anticancer assay. It is filed as cell-based. The conditions noted are these: Homo sapiens, 10 µM one dose, Colon Cancer, read-out: Growth Inhibition % SW-620. In a few lines:
as §1

The test system of another assay is NCI-H23. Nature of the assay: NCI 60 one dose (10 μM) anticancer assay. To be noted: Homo sapiens, 10 µM one dose, Non-small cell lung Cancer, read-out: Growth Inhibition % NCI-H23. The assay is classed as cell-based. In short, it runs like this:
as §1

The test system of a further assay is A498. Nature of the assay: NCI 60 one dose (10 μM) anticancer assay. It is filed as cell-based. To be noted: Homo sapiens, 10 µM one dose, Renal Cancer, read-out: Growth Inhibition % A498. In a few lines:
as §1

The test system of the next assay is SF-268. Nature of the assay: NCI 60 one dose (10 μM) anticancer assay. It is filed as cell-based. The conditions noted are these: Homo sapiens, 10 µM one dose, CNS Cancer, read-out: Growth Inhibition % SF-268. In short, it runs like this: as §1
Another assay deals with SR. Nature of the assay: NCI 60 one dose (10 μM) anticancer assay. It is filed as cell-based. The conditions noted are these: Homo sapiens, 10 µM one dose, Leukemia, read-out: Growth Inhibition % SR. In short, it runs like this:
as §1

The test system of another assay is OVCAR-4. Nature of the assay: NCI 60 one dose (10 μM) anticancer assay. The assay is classed as cell-based. The conditions noted are these: Homo sapiens, 10 µM one dose, Ovarian Cancer, read-out: Growth Inhibition % OVCAR-4. In a few lines:
as §1

The next assay deals with HOP-92. Nature of the assay: NCI 60 one dose (10 μM) anticancer assay. It is filed as cell-based. The conditions noted are these: Homo sapiens, 10 µM one dose, Non-small cell lung Cancer, read-out: Growth Inhibition % HOP-92. In short, it runs like this: as §1
A further assay relates to PRMI-8226. Nature of the assay: NCI 60 one dose (10 μM) anticancer assay. It is filed as cell-based. The conditions noted are these: 10 µM one dose; Leukemia; read-out: Growth Inhibition % PRMI-8226.
The subject of a further assay is HSF cell line. Nature of the assay: In vitro growth inhibitory activity on normal human skin fibroblast, SRB assay. It is filed as cell-based. The conditions noted are these: for IC50: Homo sapiens, HSF, SRB assay, 48 h, normal cell line, mean of three independent experiments. The protocol:
The anticancer activity of the synthesized compounds was measured in vitro using the Sulfo-Rhodamine-B (SRB) assay according to Skehan et al.. Briefly, HepG2 or HSF cells (obtained from Nawah Scientific) were inoculated in 96-well microtiter plates (10^4 cells/ well) for 24 h before treatment with the tested compounds to allow attachment of cells to the walls of the plates. Test compounds were dissolved in DMSO immediately before use and diluted to the appropriate volume just before addition to the cell culture. […] Three wells were prepared for each individual dose. Monolayer cells were incubated with the compounds for 48 h at 37 °C and in an atmosphere of 5% CO2. After 48 h, cells were fixed, washed and stained for 30 min with 0.4% (w/v) SRB dissolved in 1% acetic acid. Unbound dye was removed by four washes with 1% acetic acid and attached stain was recovered with Tris-EDTA buffer. Color intensity was measured in an ELISA reader. The relation between surviving fraction and drug concentration was plotted to get the survival curve.

In a further assay the target is VEGFR-2 (Homo sapiens, UniProt P35968). Nature of the assay: Biochemical kinase assay (Kinase-Glo Plus luminescence).
Chain of VEGFR-2 (P35968 20-1356): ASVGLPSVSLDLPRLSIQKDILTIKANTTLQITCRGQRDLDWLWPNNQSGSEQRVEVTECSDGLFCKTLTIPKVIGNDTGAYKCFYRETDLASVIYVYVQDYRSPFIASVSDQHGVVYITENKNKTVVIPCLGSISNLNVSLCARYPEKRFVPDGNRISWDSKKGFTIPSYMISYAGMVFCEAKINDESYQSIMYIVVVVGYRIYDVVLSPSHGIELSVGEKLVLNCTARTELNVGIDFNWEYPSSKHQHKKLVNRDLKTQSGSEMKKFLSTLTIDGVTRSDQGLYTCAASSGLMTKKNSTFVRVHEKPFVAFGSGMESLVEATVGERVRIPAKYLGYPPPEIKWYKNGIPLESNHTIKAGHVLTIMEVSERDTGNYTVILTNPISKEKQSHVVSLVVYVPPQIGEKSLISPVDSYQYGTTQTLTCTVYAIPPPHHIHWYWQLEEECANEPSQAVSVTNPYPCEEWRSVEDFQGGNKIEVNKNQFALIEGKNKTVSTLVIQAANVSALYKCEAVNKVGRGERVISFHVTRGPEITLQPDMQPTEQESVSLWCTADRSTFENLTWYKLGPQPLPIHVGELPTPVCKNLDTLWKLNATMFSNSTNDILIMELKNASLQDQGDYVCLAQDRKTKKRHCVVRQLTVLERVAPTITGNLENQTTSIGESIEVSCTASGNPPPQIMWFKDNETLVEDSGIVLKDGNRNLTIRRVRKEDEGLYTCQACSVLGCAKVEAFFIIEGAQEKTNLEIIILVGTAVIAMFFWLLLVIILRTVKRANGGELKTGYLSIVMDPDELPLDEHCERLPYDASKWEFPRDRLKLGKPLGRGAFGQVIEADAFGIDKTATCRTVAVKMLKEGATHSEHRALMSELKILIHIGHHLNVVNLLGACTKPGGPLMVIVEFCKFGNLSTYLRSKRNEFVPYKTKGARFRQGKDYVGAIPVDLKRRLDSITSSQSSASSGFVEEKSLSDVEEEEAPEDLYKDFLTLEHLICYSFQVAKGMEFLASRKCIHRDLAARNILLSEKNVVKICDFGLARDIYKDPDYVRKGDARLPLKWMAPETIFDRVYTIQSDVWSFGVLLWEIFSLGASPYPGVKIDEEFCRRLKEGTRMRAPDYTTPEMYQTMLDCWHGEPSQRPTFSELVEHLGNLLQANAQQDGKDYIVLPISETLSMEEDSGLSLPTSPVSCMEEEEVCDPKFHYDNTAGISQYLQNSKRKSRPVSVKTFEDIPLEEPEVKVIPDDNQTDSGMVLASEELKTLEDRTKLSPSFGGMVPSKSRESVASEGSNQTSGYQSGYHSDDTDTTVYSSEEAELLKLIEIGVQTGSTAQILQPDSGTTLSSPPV

Description for VEGFR-2: This assay was carried out using the VEGFR-2 kinase enzyme system or FGFR-1 kinase enzyme system and Kinase-Glo Plus luminescence kinase (Promega) kits according to the manufacturers´ protocols. This assay evaluated the activity of kinase by measuring the amount of ATP remaining in solution after a kinase reaction. The luminescent signal from the assay was related to the quantity of ATP available, which was inversely proportional to the amount of kinase activity. […] Subsequently, serial dilutions were carried out, and 5 µL of the dilution was added to a 50 µL reaction. The enzymatic reactions were performed at 30 °C for 45 minutes. The 50 µL reaction mixture contained 40 mM Tris, pH 7.4, 10 mM MgCl2, 0.1 mg/mL BSA, 1 mM DTT, 0.2 mg/ml Poly (Glu, Tyr) substrate, 10 μM ATP and protein. After the enzymatic reaction, 50 µL of Kinase-Glo Plus Luminescence kinase assay solution was added to each reaction, and the plates were incubated for 15 minutes at room temperature. The luminescence signal was measured using a Tecan–spark multimode microplate reader. The difference between luminescence intensities in the absence of Kinase (Lut) and in the presence of Kinase (Luc) was defined as 100% activity (Lut − Luc). Using a luminescence signal (Lu) in the presence of the compound, % activity was calculated as: % activity = {(Lut − Lu)/(Lut − Luc)}×100%, where Lu = the luminescence intensity in the presence of the compound.

With `Cc1ccc(-c2nc3ccccc3n2CC(=O)N/N=C/c2ccc(OCc3ccccc3)cc2)o1` [Compound 17d, (E)-N′-(4-(Benzyloxy)benzylidene)-2-(2-(5-methylfuran-2-yl)-1H-benzo[d]imidazol-1-yl)acetohydrazide], the inhibition at 10 µM with SNB-75 was 20%; with HS 578T, 32%; with SK-MEL-5, 15%; in the assay with BT-549 it was less than 10%; in the assay with UO-31, 30%; in the assay on U251, less than 10%. Besides, the inhibition at 10 µM is 23% in the assay on A549/ATTC; 20% in the assay on NCI-H322M; 21% in the assay with EKVX; less than 10% with CCRF-CEM; less than 10% in the assay with SW-620; less than 10% in the assay on NCI-H23. Further, the inhibition at 10 µM in the assay on A498 was 17%; in the assay on SF-268 it was 23%; with SR, 16%; in the assay with OVCAR-4, less than 10%.

As for `C/C(=N\NC(=O)Cn1c(C(C)C)nc2ccccc21)c1ccccc1` [Compound 14a, (E)-2-(2-Isopropyl-1H-benzo[d]imidazol-1-yl)-N′-(1-phenylethylidene)acetohydrazide], the inhibition at 10 µM in the assay on SNB-75 is 18%; in the assay on HS 578T, 24%; with SK-MEL-5 it was less than 10%; in the assay with HOP-92 it was 18%; with BT-549 it was less than 10%; in the assay on UO-31, less than 10%. For the same compound, the inhibition at 10 µM is less than 10% in the assay with U251; less than 10% with A549/ATTC; less than 10% in the assay with NCI-H322M; less than 10% in the assay on EKVX; 16% in the assay with CCRF-CEM; 18% in the assay on SW-620. For the same compound, the inhibition at 10 µM in the assay on NCI-H23 was less than 10%; in the assay on A498, 49%; in the assay with SF-268 it was less than 10%; in the assay on PRMI-8226, less than 10%; with OVCAR-4 it was less than 10%.

For the compound `COc1cc(/C=N/NC(=O)Cn2c(-c3ccc(C)o3)nc3ccccc32)ccc1OCc1ccccc1` [Compound 17f, (E)-N′-(4-(Benzyloxy)-3-methoxybenzylidene)-2-(2-(5-methylfuran-2-yl)-1H-benzo[d]imidazol-1-yl)acetohydrazide], the inhibition at 10 µM in the assay on SNB-75 was 17%; in the assay on HS 578T, 30%; in the assay on SK-MEL-5, 23%; in the assay on BT-549 it was less than 10%; in the assay on UO-31 it was 38%; with U251 it was less than 10%. Also, the inhibition at 10 µM in the assay on A549/ATTC was 27%; in the assay on NCI-H322M it was less than 10%; in the assay on EKVX, 25%; in the assay on CCRF-CEM, 19%; with SW-620, less than 10%; in the assay with NCI-H23, less than 10%. Further, the inhibition at 10 µM with A498 was 21%; in the assay with SF-268, 24%; with SR it was 25%; in the assay on OVCAR-4, less than 10%.

For `CC(C)c1nc2ccccc2n1CC(=O)N/N=C/c1ccc(OCc2ccccc2)cc1` [Compound 17c, (E)-N′-(4-(Benzyloxy)benzylidene)-2-(2-isopropyl-1H-benzo[d]imidazol-1-yl)acetohydrazide], the inhibition at 10 µM in the assay on SNB-75 was less than 10%; with HS 578T, 16%; with SK-MEL-5, less than 10%; in the assay with HOP-92, less than 10%; with BT-549, less than 10%; in the assay on UO-31 it was 28%. Further, the inhibition at 10 µM in the assay on U251, with A549/ATTC, in the assay with NCI-H322M, in the assay with EKVX, in the assay with CCRF-CEM and with SW-620 was less than 10% throughout. For the same compound, the inhibition at 10 µM with NCI-H23, in the assay on A498, in the assay on SF-268 and with SR was less than 10% throughout.

For `Cc1ccc(-c2nc3ccccc3n2CC(=O)N/N=C/c2cccc(OCc3ccccc3)c2)o1` [Compound 17b, (E)-N′-(3-(Benzyloxy)benzylidene)-2-(2-(5-methylfuran-2-yl)-1H-benzo[d]imidazol-1-yl)acetohydrazide], the inhibition at 10 µM in the assay with SNB-75 is 39%; with HS 578T it was 25%; with SK-MEL-5 it was 33%; with HOP-92 it was 32%; in the assay with BT-549, less than 10%; in the assay on UO-31, 57%. Moreover, the inhibition at 10 µM with U251 was determined as 36%; in the assay on A549/ATTC, 42%; with NCI-H322M, 21%; with EKVX it was 43%; in the assay on CCRF-CEM it was 28%; with SW-620, 13%. In addition, the inhibition at 10 µM came to 14% with NCI-H23; 16% in the assay with A498; 37% in the assay with SF-268; 25% in the assay on SR; 50% in the assay on PRMI-8226; 21% in the assay on OVCAR-4. For the same compound, the IC50 with HSF cell line came out at 4.8 µM; on VEGFR-2, 140 ± 4 nM.

Take `COc1cc(/C=N/NC(=O)Cn2c(C(C)C)nc3ccccc32)ccc1OCc1ccccc1` [Compound 17e, (E)-N′-(4-(Benzyloxy)-3-methoxybenzylidene)-2-(2-isopropyl-1H-benzo[d]imidazol-1-yl)acetohydrazide]: the inhibition at 10 µM in the assay on SNB-75 was less than 10%; in the assay with HS 578T it was less than 10%; in the assay on SK-MEL-5, 17%; in the assay on HOP-92 it was less than 10%; with BT-549, less than 10%; in the assay with UO-31 it was 20%. The inhibition at 10 µM with U251, in the assay with A549/ATTC, in the assay with NCI-H322M, in the assay with EKVX, with CCRF-CEM and with SW-620 was less than 10% each time. Moreover, the inhibition at 10 µM in the assay on NCI-H23 was less than 10%; in the assay with A498 it was 22%; with SF-268 it was less than 10%; in the assay on SR, less than 10%; in the assay on OVCAR-4, less than 10%.

For `CC(C)c1nc2ccccc2n1CC(=O)N/N=C/c1cccc(OCc2ccccc2)c1` [Compound 17a, (E)-N′-(3-(Benzyloxy)benzylidene)-2-(2-isopropyl-1H-benzo[d]imidazol-1-yl)acetohydrazide], the inhibition at 10 µM is 15% in the assay with SNB-75; 20% in the assay on HS 578T; 50% with SK-MEL-5; 28% with BT-549; 44% in the assay on UO-31; less than 10% in the assay on U251. Besides, the inhibition at 10 µM in the assay on A549/ATTC was 16%; in the assay on NCI-H322M, less than 10%; in the assay with EKVX it was 21%; with CCRF-CEM it was 41%; in the assay on SW-620, less than 10%; in the assay with NCI-H23 it was 39%. For the same compound, the inhibition at 10 µM in the assay on A498 is 17%; in the assay on SF-268 it was less than 10%; in the assay with SR it was 64%; in the assay with OVCAR-4, less than 10%. Besides, the IC50 in the assay with HSF cell line was determined as 19.9 µM; at VEGFR-2 it was 110 ± 3 nM. Further, the “selectivity to the HepG2 cell line over the normal HSF cell line” value in the assay on HSF cell line (from IC50 HSF vs IC50 HepG2) is reported as “about ten-fold higher selectivity”.
